Experimental data taken from the NIST ThermoML archive (doi:10.1016/j.jct.2004.11.016).

Legend:
[1] = xn = mol fraction of the nth substance listed; conditions: Liquid, x2 = 0; for viscosity: 101 kPa; for mass density: 101.3 kPa
[2] = Liquid; for mass density: 101.3 kPa; for viscosity: 101 kPa

O [water] + CN(C)CCO
[1]
Conditions	mass density [kg/m3]	viscosity [mPa·s]
313.15 K	–	0.651
323.15 K	988.03	0.544
328.15 K	985.688	–
333.15 K	983.191	0.463
338.15 K	980.546	–
343.15 K	977.759	0.396
348.15 K	974.838	–
353.15 K	971.785	0.348
358.15 K	968.606	–
363.15 K	965.305	–

CN(C)CCO [2-(N,N-dimethylamino)ethanol]
[2]
Conditions	mass density [kg/m3]	viscosity [mPa·s]
293.15 K	887.816	–
298.15 K	883.578	–
303.15 K	879.315	–
308.15 K	875.017	–
313.15 K	870.686	2.238
318.15 K	866.316	–
323.15 K	861.902	1.756
328.15 K	857.46	–
333.15 K	852.965	1.413
338.15 K	848.423	–
343.15 K	843.844	1.156
348.15 K	839.205	–
353.15 K	834.521	0.963
358.15 K	829.779	–
363.15 K	824.969	–

O [water]
[2]
Conditions	mass density [kg/m3]	viscosity [mPa·s]
313.15 K	–	0.651
323.15 K	988.03	0.544
328.15 K	985.688	–
333.15 K	983.191	0.463
338.15 K	980.546	–
343.15 K	977.759	0.396
348.15 K	974.838	–
353.15 K	971.785	0.348
358.15 K	968.606	–
363.15 K	965.305	–
